These results are taken from patent US8158560B2, “Insecticidal arylpyrroline compounds” (Bayer CropScience AG, priority 2009, dated 2012).

What all share (format): in vivo
One assay concerns Spodoptera litura. The assay can be described thus: Biological Test Example 1: test against tobacco cutworm (Spodoptera litura) larvae, sweet potato leaf dip. The following applies: foliar, 168 h, active compound concentration 100 ppm, third instar larvae, after 7 days, read-out: insecticidal activity. Here is the method: (§1) Unless not mentioned otherwise, the test solutions were prepared as follows:
(§2) Containing as solvent: Dimethylformamide, 3 parts by weight; and as emulsifier: Polyoxyethylene alkyl phenyl ether, 1 part by weight
(§3) To prepare the test solution, 1 part by weight of an active compound is mixed with the above-mentioned amount of solvent containing the above-mentioned amount of emulsifier, and the mixture is diluted with water to the desired concentration.
Test Against Tobacco Cutworm (Spodoptera litura) Larvae
Leaves of sweet potato were immersed in the test solution at the appropriate concentration, and the leaves were dried in air. The leaves were then placed in a petri dish having a diameter of 9 cm, and ten Spodoptera litura at third instar larvae were released therein. The petri dishes were placed in a temperature-controlled chamber at 25° C.
After 2 days and 4 days more sweet potato leaves were added. After 7 days, the number of dead larvae was counted and the insecticidal activity was calculated. An insecticidal activity of 100% means that all larvae were killed, whereas an insecticidal activity of 0% means that no larva was killed. In the current test, the results of two petri dishes for each treatment were averaged.

In another assay the test system is Tetranychus urticae. The assay can be described thus: Biological Test Example 2: test against two-spotted spider mite (Tetranychus urticae), spray on kidney bean. The following applies: 168 h, active compound concentration 100 ppm, adult mites, after 7 days, read-out: acaricidal activity. How it is done:
as §1, §2, §3
Test Against Two-Spotted Spider Mite (Tetranvchus urticae)
50 to 100 adult mites of Tetranychus urticae were inoculated to leaves of kidney bean at two-leaf stage planted in a pot of 6 cm in diameter. After one day, test solution at the appropriate concentration was sprayed thereon in a sufficient amount using a spray gun. After the spraying, the plant pot was placed inside a greenhouse, and after 7 days, the acaricidal activity was calculated. An acaricidal activity of 100% means that all mites were killed, whereas an acaricidal activity of 0% means that no mite was killed.

Another assay deals with Aulacophora femoralis. The experiment in a line: Biological Test Example 3: test against cucurbit leaf beetle (Aulacophora femoralis), cucumber leaf dip. Conditions: foliar, 168 h, active compound concentration 100 ppm, second instar larvae, after 7 days, read-out: insecticidal activity. How it is done: as §1, §2, §3
Test Against Cucurbit Leaf Beetle (Aulacophora femoralis)
Leaves of cucumber were immersed in the test solution at the appropriate concentration, and the leaves were dried in air. The leaves were then put in a plastic cup containing sterilized black soil and five Aulacophora femoralis at second instar larvae were released in the cup. The cups were placed in a temperature-controlled chamber at 25° C. After 7 days, the number of dead larvae was counted, and the insecticidal activity was calculated. An insecticidal activity of 100% means that all larvae were killed, whereas an insecticidal activity of 0% means that no larva was killed.

For assay [1], the system named is organic phosphorus agent- and carbamate agent-resistant Myzus persicae. The experiment in a line: Biological Test Example 4: test against organic phosphorus agent- and carbamate agent-resistant green peach aphid (Myzus persicae), spray on eggplant. Conditions: active compound concentration 100 ppm; after 7 days. How it is done: as §1, §2, §3
Test Against Organic Phosphorus Agent- and Carbamate Agent Resistant Green Peach Aphid (Myzus persicae)
50 to 100 head of organic phosphorous agent- and carbamate agent-resistant Myzus persicae were inoculated to leaves of eggplant at two-leaf stage, planted in a pot of 6 cm in diameter. After one day, test solution at the appropriate concentration was sprayed thereon in a sufficient amount using a spray gun. After the spraying, the plant pot was placed inside a greenhouse, and after 7 days, the insecticidal rate was calculated.
An insecticidal activity of 100% means that all aphids were killed, whereas an insecticidal activity of 0% means that no aphid was killed.

Assay [2] deals with Myzus persicae-resistant strain, mixed population. The experiment in a line: Myzus persicae spray test (MYZUPE). The following applies: 4 ppm, 6 dat, rating scheme. Here is the method: Myzus persicae—Spray Test (MYZUPE)
Insect: Myzus persicae-resistant strain, mixed population
Plant: Eggplant seedling (Solanum melongena var. Senryo 2gou) 2 leaf age (4-5 weeks after sowing), transplanted into vinyl pots of 60 mm diameter
Solvent pre-mixture: Sorpol® SD: Sorpol® BDB:Dimethylformamide=3:3:14; 10 mg a.i. is solved with 0.05 ml solvent pre-mixture. Water for dilution contains RME and AS (1000 ppm each) or 0.1% of spreader. Solutions are diluted at the rate of 1:5 for limit concentration determination.
Procedure: 1 day before treatment aphids are inoculated onto the testing plants, about 50 aphids per leaf, 100 for 1 pot. A paper label is placed on each pot. Solutions are sprayed directly onto both insects and plants. After drying pots are placed in the greenhouse at 20° C.-25° C. and 50-60% relative humidity.
After the specified period of time the mortality in % is determined and the rate of death is calculated according to the following scheme/criteria: […]

Assay [3] concerns Nephotettix cincticeps-MR, resistant strain, 3rd-4th instar nymphs. The experiment in a line: Nephotettix cincticeps spray test (NEPHCI). The following applies: 7 dat. Here is the method: Nephotettix cincticeps-Spray Test (NEPHCl)
Insect: Nephotettix cincticeps-MR, resistant strain, 3rd-4th instar nymphs from own culture
Plant: Rice seedlings (Oryza sativa var. Tamanishiki)
Material: ST-method container (200 ml desiccant polystyrene bottle) with a hole in the bottom sealed with metal mesh. The lid has a pit inside to keep desiccant, and it is used to sow rice seeds. The bottle is used upside down as “cover”, the lid with seedling is called “base”. Plastic stand-board with magnet labels to line the ST Bases up (“Stand”)
Solvent pre-mixture: Sorpol® SD: Sorpol® BDB:Dimethylformamide=3:3:14 10 mg a i. is solved with 0.05 ml solvent pre-mixture. Water for dilution contains RME and AS (1000 ppm each) or 0.1% of spreader. Solutions are diluted at the rate of 1:5 for limit concentration determination.
Procedure: On a pit in the center of a base (originally the desiccant space) pieces of paper towel are placed. 20-30 germinated rice seeds are sown on the paper and moistened with water. The base is covered with a plastic cup and kept in an incubator at 30° C. for five days.
The base with rice seedlings is placed on the Stand. Each base is sprayed with the solution.
After drying twelve 3rd-4th instar nymphs of Nephotettix cincticeps-MR are put on the base and confined with the cover. The ST containers on the Stands are kept in the testing room at 25° C. and 50-60% r.h., 16L8D lighting conditions.
After the specified period of time mortality in % is determined by rating according to the following scheme/criteria: Counting living moving insects, calculate mortality in % by the formula: […]

The subject of assay [4] is Bemisia tabacii biotype B. The experiment in a line: Bemisia tabacii spray test (BEMIAR). The following applies: 100 ppm, 14 dat, rating scheme b324. How it is done:
Bemisia tabacii—Spray-Test (BEMIAR)
Insect: Bemisia tabacii biotype B
Plant: Tomato seedlings, 5 leaf stage in vinyl pots of 40 mm diameter
(§4) Solvent pre-mixture: Sorpol® SD: Sorpol® BDB:Dimethylformamide=3:3:14
10 mg a.i. is solved with 0.05 ml solvent pre-mixture. Water for dilution contains RME and AS (1000 ppm each) or 0.1% of spreader. Solutions are diluted at the rate of 1:5 for limit concentration determination.
Procedure: Solutions are sprayed to the plants. After drying treated pots are placed in the greenhouse where breeding BEMIAR for an infection-time of 24 h. Then the plants is placed in the testing room at 25° C. and 50-60% r.h., 16L8D lighting conditions.
(§5) After the specified period of time mortality in % is determined according to the following scheme/criteria: […]

The subject of assay [5] is Plutella xylostella 3rd instar larvae. The assay can be described thus: Plutella xylostella spray test (PLUTXY). Conditions: PLUTMA; 0.8 ppm; 7 dat. How it is done:
Plutella xylostella—Spray Test (PLUTXY)
Insect: Plutella xylostella 3rd instar larvae from own culture
Material: A-PET cup, A-PET lids
Plant: Broccoli 5 leaf stage
as §4
10 mg a i. is solved with 0.05 ml solvent pre-mixture
(§6) Water for dilution contains RME and AS (1000 ppm each) or 0.1% of spreader. Solutions are diluted at the rate of 1:5 for limit concentration determination.
Procedure: Broccoli seedlings of 4-5 leaf stage planted in a vinyl pot (9 cm diameter) are sprayed with the solution. After drying half of the leaves of the plants are cut and put into a A-PET cup. Ten larvae of Plutella xylostella L3 are released in the cup and the dish is placed at 25° C. After 4 days another half leaf is cut and added to the dish. After the specified period of time mortality in % is determined according to the figures of mortality used for evaluation. • 1 larva dead: 20% Efficacy • 5 larvae dead: 100% Efficacy Adoxophyes honmai—Test (ADXPFA)

Assay [6] has as its system Aulacophora femoralis 2nd instar larvae. The assay can be described thus: Aulacophora femoralis spray test (AUACFE). The following applies: 0.8 ppm, 6 dat, rating scheme b297. Here is the method:
Aulacophora femoralis—Spray Test (AUACFE)
Insect: Aulacophora femoralis 2nd instar larvae from own culture;
Material: PET cups with 5 ml soil and A-PET lids
Plant: Cucumber (Cucumis sativus var. Hanshiro), cotyledon stage; 1 plant per pot;
Solvent pre-mixture: Sorpol® SD: Sorpol® BDB:Dimethylformamide=3:3:14;
10 mg a.i. solved with 0.05 ml solvent pre-mixture. Water for dilution contains RME and AS (1000 ppm each) or 0.1% of spreader. Solutions are diluted at the rate of 1:5 for limit concentration determination.
Procedure: Solutions are sprayed onto a plant. After drying, plants are cut and put on the soil in the testing cup. Five larvae L2 are released into each testing cup.
The testing cup is covered with the lid and stored at 25° C. and 50-60% r.h., 16L8D lighting conditions.
After the specified period of time, the mortality in % is determined according to the following scheme/criteria: […]

In a further assay the test system is Panonychus citri. The experiment in a line: Panonychus citri spray test (METTCI). Conditions: 4 ppm, 7 dat, rating scheme b306. How it is done: Panonychus citri—Spray Test (METTCI)
Plant: Citrus plants, ca 8 cm height
as §4
(§7) 10 mg a i. is solved with 0.05 ml solvent pre-mixture.
as §6
Procedure: 1 day before treatment mites were inoculated onto potted citrus plants, about 50 adults and some nymphs for 1 pot. The test solution is sprayed directly onto both mites and plants. After drying pots are stored at 25° C.
After the specified period of time mortality in % is determined by rating according to the following scheme/criteria.

The subject of assay [7] is Spodoptera litura L2 stage. The experiment in a line: Spodoptera litura root soaking test (PRODLI). Conditions: 20 ppm, 4 dat. How it is done:
Spodoptera litura—Root Soaking Test (PRODLI)
Insect: Spodoptera litura L2 stage;
Material: Culture media bottles for hydroponics: Plastic (A-PET) cups for test, square type;
Plant: Broccoli 5 leaf stage (ca. 12 cm high), soil around the roots was washed off just before the test;
Solvent pre-mixture “Sorpol SD” for root soaking test;
Sorpol SD: Sorpol BDB:Dimethylformamide=3:3:140
Procedure: Test solutions are prepared in the bottles at the appropriate concentration. The test plant root is dipped into the test solution in the bottle and kept in a test room. After 3 days, ⅓ part of the leaves of the plants is cut and put into the A-PET cup.
Into each test cup five larvae L2 are released, the cup is covered with a lid and stored at 25° C. and at a relative humidity of 50-60% and under 16L8D lighting conditions.
After the specified period of time the mortality in % is determined and the rate of death is calculated.

Assay [8] concerns Tetranychus urticae-S (sensible strain) mixed population. The assay can be described thus: Tetranychus urticae test (TETRUR). Conditions: 0.16 ppm, 2 dat, rating scheme b334. Here is the method: Tetranychus urticae—Test (TETRUR)
Insect: Tetranychus urticae-S (sensible strain) mixed population from own culture
Plant: Kidney bean seedlings (Phaseolus vulgaris var. Serena), 2 leaf stage (1 week after sowing)
as §4, §7, §6
Procedure: 1 day before treatment the apex parts of testing plants are pruned. Mites are inoculated onto the testing plants, about 20 adults per leaf, 40 adults and some nymphs for 1 pot. A paper label is placed on each pot. The solution is sprayed onto mites and plants. After drying pots are placed in the greenhouse, temperature 20° C.-25° C.
as §5

Regarding `Cc1cc(C2=NCC(c3cc(C(F)(F)F)cc(C(F)(F)F)c3)(C(F)(F)F)C2)ccc1C(=O)NC1CS(=O)(=O)C1` (stereo not drawn) [Compound 1-21, 4-{3-[3,5-Bis(trifluoromethyl)phenyl]-3-(trifluoromethyl)-3,4-dihydro-2H-pyrrol-5-yl}-N-(1,1-dioxidothietan-3-yl)-2-methylbenzamide], the pest or weed control at 100 ppm in the assay with Spodoptera litura, with Tetranychus urticae and in the assay on Aulacophora femoralis was 100% each time. For the same compound, in assay [1], the insecticidal activity was 100%. The “Efficacy/day(s) of treatment” value was 98%/6 dat in assay [2], 90%/7 dat in assay [3] (100 ppm), 98%/14 dat in assay [4] and 100%/7 dat in assay [5].

On to `Cc1cc(C2=NOC(c3cc(C(F)(F)F)cc(C(F)(F)F)c3)(C(F)(F)F)C2)ccc1C(=O)NC1CS(=O)(=O)C1` (stereo not drawn) [Compound C-1, reference compound], for which the “Efficacy/day(s) of treatment” value was found to be 60%/6 dat in assay [2], 70%/7 dat in [3] (100 ppm), 60%/14 dat in assay [4] and 80%/7 dat in [5].

As for `Cc1cc(C2=NOC(c3cc(C(F)(F)F)cc(C(F)(F)F)c3)(C(F)(F)F)C2)ccc1C(=O)NC1CSC1` (stereo not drawn) [ExNo A21 of WO 2009/080250, reference compound], the “Efficacy/day(s) of treatment” value was determined as 60%/6 dat in assay [2]; 50%/6 dat in assay [6]; 0%/7 dat in the assay with Panonychus citri; 0%/7 dat in [3] (20 ppm); 60%/14 dat in assay [4].

Consider `Cc1cc(C2=NCC(c3cc(Cl)cc(Cl)c3)(C(F)(F)F)C2)ccc1C(=O)NC1CSC1` (stereo not drawn) [ExNo A49 of WO 2010/020522], for which the “Efficacy/day(s) of treatment” value in assay [7] stood at 100%/4 dat; in [8] it was 90%/2 dat.

For `Cc1cc(C2=NOC(c3cc(Cl)cc(Cl)c3)(C(F)(F)F)C2)ccc1C(=O)NC1CSC1` (stereo not drawn) [ExNo A-4 of WO 2009/080250], the “Efficacy/day(s) of treatment” value was 80%/4 dat in assay [7] and 60%/2 dat in assay [8].
